Data on 1 compound can be found in patent US4937346A, “Phenyl-azacykloalkanes” (Carlsson; Per Arvid Emil, priority 1979, dated 1990).

“Also recorded” adds a separate entry of the source.

Test [1] has as its system dopa formation. Put plainly: Dopa formation and dopamine metabolite levels in rats not pretreated with GBL or reserpine. It counts as in vivo, rat.
The test system of test [2] is postsynaptic dopaminergic receptor. Put plainly: Antagonism of apomorphine-induced locomotor stimulation. It counts as in vivo, rat. The protocol:
3. Evidence for postsynaptic dopminergic receptor antagonist activity of (-)-3-PPP.
The locomotor stimulating action of the dopamine receptor aqonist apomorphine is antagonized by (-)-3-PPP. […] Thus the postsynaptic receptor antagonist activity requires a larger dose than the presynaptic receptor agonist activity, which is evident after doses down to 0.25 mg/kg.
Further, (-)-3-PPP and racemic 3-PPP have been compared regarding antagonism of apomorphine-induced locomotor stimulation. Either form of 3-PPP was injected subcutaneously in a dose of 8 mg/kg 20 min and apomorphine in a dose of 1 mg/kg subcutaneously 5 min before placing the rats in the Motron for 30 min. Shown are the counts per 30 min., means± s.e.m. and number of experiments (n).

Test [3] concerns dopaminergic receptors (presynaptic and postsynaptic). Put plainly: Dopaminergic receptor profile of 3-PPP and its enantiomers (summary of tests). It is filed as in vivo. The conditions noted are these: summary of enantiomer tests. The source says: The two enantiomers of 3-PPP have now been tested separately.
The subject of test [4] is postsynaptic dopaminergic receptors. Put plainly: Locomotor activity in reserpine-treated rats, enantiomers of 3-PPP. It counts as in vivo, rat. The conditions noted are these: reserpine-treated rats; (+)-form 0.25 to 64 mg/kg. An excerpt:
2. Evidence for postsynaptic dopaminergic receptor agonist activity of (+)-3-PPP.

Test [5] has as its system presynaptic dopaminergic receptor (autoreceptor). Briefly: Spontaneous exploratory motor activity of rats, enantiomers of 3-PPP. It counts as in vivo, rat. The protocol: 1. Evidence for presynaptic dopaminergic receptor (autoreceptor) agonist activity of both enantiomers of 3-PPP. Both enantiomers of 3-PPP cause a dose-dependent decrease in spontaneous exploratory motor activity of rats. […] However, the (+)-enantiomer causes a decrease only after doses between 0.25 and 4 mg/kg s.c.

Test [6] concerns presynaptic dopaminergic receptors and postsynaptic dopaminergic receptors. Put plainly: Antagonism of the locomotor stimulating activity of (+)-amphetamine. The conditions noted are these: in vivo. The source says:
This effect is probably the result of the simultaneous stimulation of presynaptic dopaminergic receptors and partial blockade of postsynaptic dopaminergic receptors. All the major antipsychotic agents in current use are potent amphetamine antagonists, and such activity is considered to be predictive of antipsychotic action.

With `CCCN1CCCC(c2cccc(O)c2)C1.Cl` (single isomer, unassigned; (-)) [(-)-3-PPP, (-)-3-(3-Hydroxyphenyl)-N-n-propylpiperidine hydrochloride], the “dopa formation, limbic region” value in test [1] (0.053 to 64 mg/kg, no pretreatment, limbic region) is on record as “no change”. For the same compound, the “dopa formation, striatum” value in test [1] (0.053 to 64 mg/kg, no pretreatment, striatum) was “increase”. Besides, the “levels of 3,4-dihydroxyphenyl acetic acid and homovanillic acid” value in test [1] (matched to the changes in dopa formation) is recorded as “corresponding changes in the levels of the dopamine metabolites”. The “dopa formation and dopamine metabolite levels in rat striatum” value in test [1] (rat striatum) was “stimulate dopa formation and to raise dopaminemetabolite levels in rat striatum”. In addition, the “antagonism of apomorphine locomotor stimulation” value is on record as “not after 2 mg/kg” in test [2] (2 mg/kg) and “clearcut; also recorded: antagonized said stimulation” in test [2] (8 mg/kg s.c., hydrochloride). In addition, in test [2] (8 mg/kg s.c. + apomorphine 1 mg/kg s.c., means ± s.e.m., n=5), the “counts per 30 min., with apomorphine” value worked out at 276 ± 50 counts per 30 min. The “activity on presynaptic and postsynaptic dopaminergic receptors” value in test [3] is listed as “capable of activating the presynaptic dopaminergic receptors (autoreceptors) but concomitantly reduced the sensitivity of the postsynaptic dopaminergic receptors to dopaminergic agonists”. The “stimulation of locomotor activity” value in test [4] was “only a very weak stimulation of motor activity”. The “effect on locomotor activity over dose range” value in test [5] (doses between 0.053 and 64 mg/kg s.c.) is “a decrease after all these doses, with no reversal of the effect after larger doses”. Besides, the “doses down to which presynaptic receptor agonist activity is evident” value in test [5] (presynaptic receptor agonist activity) stood at 0.25 mg/kg. In addition, in test [5] (s.c., first 30 min), the “decrease of locomotor activity to % of control” value is given as 30-40 % of control. For the same compound, in test [6], the “antagonism of (+)-amphetamine locomotor stimulating activity” value is listed as “striking antagonistic action”.
